# Test results from US20240228555A9, “ANTIMICROBIAL PEPTIDOMIMETICS” (Basilea Pharmaceutica International AG, Allschwil, priority 2020, published 2024).
# Where a SMILES comes first, the peptide text is derived from it.
# Key:
# [1] = test system: Escherichia coli ATCC 25922; settings: ATCC 25922
# Procedure, shortened: (§1)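 Two-fold serial dilutions of peptide, in water with polysorbate 80 (0.002% final), met bacteria adjusted to 0.5 McFarland then diluted to about 5×10^5 CFU/mL. Medium was cation-adjusted Mueller-Hinton II broth; peptide stocks were 1 mg/mL in sterile water.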
# [2] = test system: Escherichia coli MCR-1 Af 45; settings: Mueller-Hinton broth II, no visible growth after 18-20 hours at 35° C.
# Procedure, shortened: as §1
# [3] = test system: Klebsiella pneumoniae SSI3010; settings: SSI3010
# Procedure, shortened: as §1
# [4] = test system: human red blood cells (hRBC); format: cell-based; settings: red cells of human, 1 h, 0.2 g/L
# Procedure, shortened: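 PBS-washed human erythrocytes (20% v/v) were incubated with compounds at 200 μg/mL for 1 h at 37° C with shaking. Supernatant OD540 was read after 8-fold dilution; hemolysis % = OD540 peptide / OD540 of the 100% lysis control (2.5% Triton X-100 in H2O) ×100, with PBS as 0%.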
SMILES,Escherichia coli ATCC 25922 MIC [1],Escherichia coli MCR-1 Af 45 MIC [2],Klebsiella pneumoniae SSI3010 MIC [3],Hemolysis at 0.2 g/L [4]
"CC[C@H](C)[C@H](NC(=O)[C@@H](NC(=O)[C@@H]1C[C@@H](O)CN1C(=O)[C@@H](N)C(C)C)[C@@H](C)CC)C(=O)N[C@@H](Cc1ccc(O)cc1)C(=O)N[C@@H]1C(=O)N[C@@H](CC(N)=O)C(=O)N[C@@H](CCCNC(=N)N)C(=O)N[C@@H](CCN)C(=O)N[C@@H]([C@@H](C)O)C(=O)N[C@H](CCN)C(=O)N[C@@H](CCCCN)C(=O)N[C@H](C(=O)N[C@@H](CCN)C(=O)N[C@@H](CO)C(=O)N[C@@H](Cc2ccc(O)cc2)C(=O)O)CSSC1(C)C [Example 105, Val-Hyp-Ile-Ile-Tyr-Pen-Asn-Arg-Dab-Thr-^DDab-Lys-Cys-Dab-Ser-Tyr] (HELM PEPTIDE1{V.[Hyp].I.I.Y.[Pen].N.R.[Dab].T.[NCC[C@@H](N[*:1])C(=O)[*:2]].K.C.[Dab].S.Y}$PEPTIDE1,PEPTIDE1,6:R3-13:R3$$$V2.0)",0.25 µg/mL,0.125 µg/mL,0.5 µg/mL,<1%
"CC[C@H](C)[C@H](NC(=O)[C@@H](NC(=O)[C@@H]1C[C@@H](N)CN1C(=O)[C@@H](N)C(C)C)[C@@H](C)CC)C(=O)N[C@@H](Cc1ccc(O)cc1)C(=O)N[C@@H]1C(=O)N[C@@H](CC(N)=O)C(=O)N[C@@H](CCCNC(=N)N)C(=O)N[C@@H](CCN)C(=O)N[C@@H]([C@@H](C)O)C(=O)N[C@H](CCN)C(=O)N[C@@H](CCCNC(N)=O)C(=O)N[C@H](C(=O)N[C@@H](CCN)C(=O)N[C@@H](CO)C(=O)N[C@@H](Cc2ccc(O)cc2)C(=O)O)CSSC1(C)C [Example 106, Val-Pro((4R)NH2)-Ile-Ile-Tyr-Pen-Asn-Arg-Dab-Thr-^DDab-Cit-Cys-Dab-Ser-Tyr] (HELM PEPTIDE1{V.[N[C@@H]1C[C@@H](C(=O)[*:2])N([*:1])C1].I.I.Y.[Pen].N.R.[Dab].T.[NCC[C@@H](N[*:1])C(=O)[*:2]].[Cit].C.[Dab].S.Y}$PEPTIDE1,PEPTIDE1,6:R3-13:R3$$$V2.0)",0.25 µg/mL,0.25 µg/mL,0.25 µg/mL,<1%
"CC[C@H](C)[C@H](NC(=O)[C@@H](NC(=O)[C@@H]1C[C@@H](O)CN1C(=O)[C@@H](N)C(C)C)[C@@H](C)CC)C(=O)N[C@@H](Cc1ccc(O)cc1)C(=O)N[C@@H]1C(=O)N[C@@H](CC(N)=O)C(=O)N[C@@H](CCCNC(=N)N)C(=O)N[C@@H](CCN)C(=O)N[C@@H]([C@@H](C)O)C(=O)N[C@H](CCN)C(=O)N[C@@H](CCCCN)C(=O)N[C@H](C(=O)N[C@@H](CO)C(=O)N[C@@H](CCCNC(=N)N)C(=O)N[C@@H](Cc2ccc(O)cc2)C(=O)O)CSSC1(C)C [Example 107, Val-Hyp-Ile-Ile-Tyr-Pen-Asn-Arg-Dab-Thr-^DDab-Lys-Cys-Ser-Arg-Tyr] (HELM PEPTIDE1{V.[Hyp].I.I.Y.[Pen].N.R.[Dab].T.[NCC[C@@H](N[*:1])C(=O)[*:2]].K.C.S.R.Y}$PEPTIDE1,PEPTIDE1,6:R3-13:R3$$$V2.0)",0.25 µg/mL,0.25 µg/mL,0.5 µg/mL,<1%
"CC[C@H](C)[C@H](NC(=O)[C@@H]1C[C@@H](O)CN1C(=O)[C@@H](N)C(C)C)C(=O)N[C@@H](CCN)C(=O)N[C@@H](Cc1ccc(O)cc1)C(=O)N[C@@H]1C(=O)N[C@@H](CC(N)=O)C(=O)N[C@@H](CCCNC(=N)N)C(=O)N[C@@H](CCN)C(=O)N[C@@H]([C@@H](C)O)C(=O)N[C@H](CCN)C(=O)N[C@@H](CCCNC(N)=O)C(=O)N[C@H](C(=O)N[C@@H](CCN)C(=O)N[C@@H](CO)C(=O)N[C@@H](Cc2ccc(O)cc2)C(=O)O)CSSC1(C)C [Example 108, Val-Hyp-Ile-Dab-Tyr-Pen-Asn-Arg-Dab-Thr-^DDab-Cit-Cys-Dab-Ser-Tyr] (HELM PEPTIDE1{V.[Hyp].I.[Dab].Y.[Pen].N.R.[Dab].T.[NCC[C@@H](N[*:1])C(=O)[*:2]].[Cit].C.[Dab].S.Y}$PEPTIDE1,PEPTIDE1,6:R3-13:R3$$$V2.0)",0.25 µg/mL,0.125 µg/mL,0.25 µg/mL,<1%
"CC[C@H](C)[C@H](NC(=O)[C@@H](NC(=O)[C@@H]1C[C@@H](N)CN1C(=O)[C@@H](N)C(C)C)[C@@H](C)CC)C(=O)N[C@@H](Cc1ccc(O)cc1)C(=O)N[C@@H]1C(=O)N[C@@H](CC(N)=O)C(=O)N[C@@H](CCCNC(=N)N)C(=O)N[C@@H](CCN)C(=O)N[C@@H]([C@@H](C)O)C(=O)N[C@H](CCN)C(=O)N[C@@H](CCCCN)C(=O)N[C@H](C(=O)N[C@@H](CCN)C(=O)N[C@H](C(=O)N[C@@H](Cc2ccc(O)cc2)C(=O)O)[C@@H](C)O)CSSC1(C)C [Example 109, Val-Pro((4R)NH2)-Ile-Ile-Tyr-Pen-Asn-Arg-Dab-Thr-^DDab-Lys-Cys-Dab-Thr-Tyr] (HELM PEPTIDE1{V.[N[C@@H]1C[C@@H](C(=O)[*:2])N([*:1])C1].I.I.Y.[Pen].N.R.[Dab].T.[NCC[C@@H](N[*:1])C(=O)[*:2]].K.C.[Dab].T.Y}$PEPTIDE1,PEPTIDE1,6:R3-13:R3$$$V2.0)",0.125 µg/mL,0.125 µg/mL,0.25 µg/mL,<1%
"CC[C@H](C)[C@H](NC(=O)[C@@H]1C[C@@H](N)CN1C(=O)[C@@H](N)C(C)C)C(=O)N[C@H](C(=O)N[C@@H](Cc1ccc(O)cc1)C(=O)N[C@@H]1C(=O)N[C@@H](CC(N)=O)C(=O)N[C@@H](CCCNC(=N)N)C(=O)N[C@@H](CCN)C(=O)N[C@@H]([C@@H](C)O)C(=O)N[C@H](CCN)C(=O)N[C@@H](CCCCN)C(=O)N[C@H](C(=O)N[C@@H](CO)C(=O)N[C@@H](CCCNC(=N)N)C(=O)N[C@@H](Cc2ccc(O)cc2)C(=O)O)CSSC1(C)C)[C@@H](C)O [Example 110, Val-Pro((4R)NH2)-Ile-Thr-Tyr-Pen-Asn-Arg-Dab-Thr-^DDab-Lys-Cys-Ser-Arg-Tyr] (HELM PEPTIDE1{V.[N[C@@H]1C[C@@H](C(=O)[*:2])N([*:1])C1].I.T.Y.[Pen].N.R.[Dab].T.[NCC[C@@H](N[*:1])C(=O)[*:2]].K.C.S.R.Y}$PEPTIDE1,PEPTIDE1,6:R3-13:R3$$$V2.0)",0.5 µg/mL,0.125 µg/mL,0.5 µg/mL,<1%
"CC[C@H](C)[C@H](NC(=O)[C@@H](NC(=O)[C@@H]1C[C@@H](O)CN1C(=O)[C@@H](N)C(C)C)[C@@H](C)CC)C(=O)N[C@@H](Cc1ccc(O)cc1)C(=O)N[C@@H]1C(=O)N[C@@H](CC(N)=O)C(=O)N[C@@H](CCCNC(=N)N)C(=O)N[C@@H](CCN)C(=O)N[C@@H]([C@@H](C)O)C(=O)N[C@H](CCN)C(=O)N[C@@H](CCCCN)C(=O)N[C@H](C(=O)N[C@@H](CCN)C(=O)N[C@H](C(=O)N[C@@H](Cc2ccc(O)cc2)C(=O)O)[C@@H](C)O)CSSC1(C)C [Example 111, Val-Hyp-Ile-Ile-Tyr-Pen-Asn-Arg-Dab-Thr-^DDab-Lys-Cys-Dab-Thr-Tyr] (HELM PEPTIDE1{V.[Hyp].I.I.Y.[Pen].N.R.[Dab].T.[NCC[C@@H](N[*:1])C(=O)[*:2]].K.C.[Dab].T.Y}$PEPTIDE1,PEPTIDE1,6:R3-13:R3$$$V2.0)",0.25 µg/mL,0.125 µg/mL,0.5 µg/mL,<1%
"CC[C@H](C)[C@H](NC(=O)[C@@H](NC(=O)[C@@H]1C[C@@H](O)CN1C(=O)[C@@H](N)C(C)C)[C@@H](C)CC)C(=O)N[C@@H](Cc1ccc(O)cc1)C(=O)N[C@@H]1C(=O)N[C@@H](CC(N)=O)C(=O)N[C@@H](CCCNC(=N)N)C(=O)N[C@@H](CCN)C(=O)N[C@@H](CO)C(=O)N[C@H](CCN)C(=O)N[C@@H](CCCCN)C(=O)N[C@H](C(=O)N[C@@H](CCN)C(=O)N[C@H](C(=O)N[C@@H](Cc2ccc(O)cc2)C(=O)O)[C@@H](C)O)CSSC1(C)C [Example 112, Val-Hyp-Ile-Ile-Tyr-Pen-Asn-Arg-Dab-Ser-^DDab-Lys-Cys-Dab-Thr-Tyr] (HELM PEPTIDE1{V.[Hyp].I.I.Y.[Pen].N.R.[Dab].S.[NCC[C@@H](N[*:1])C(=O)[*:2]].K.C.[Dab].T.Y}$PEPTIDE1,PEPTIDE1,6:R3-13:R3$$$V2.0)",0.25 µg/mL,0.0625 µg/mL,0.25 µg/mL,<1%
"CC[C@H](C)[C@H](NC(=O)[C@@H]1C[C@@H](O)CN1C(=O)[C@@H](N)C(C)C)C(=O)N[C@@H](CCN)C(=O)N[C@@H](Cc1ccc(O)cc1)C(=O)N[C@@H]1C(=O)N[C@@H](CC(N)=O)C(=O)N[C@@H](CCCNC(=N)N)C(=O)N[C@@H](CCN)C(=O)N[C@@H]([C@@H](C)O)C(=O)N[C@H](CCN)C(=O)N[C@@H](CCCNC(N)=O)C(=O)N[C@H](C(=O)N[C@@H](CCN)C(=O)N[C@H](C(=O)N[C@@H](Cc2ccc(O)cc2)C(=O)O)[C@@H](C)O)CSSC1(C)C [Example 113, Val-Hyp-Ile-Dab-Tyr-Pen-Asn-Arg-Dab-Thr-^DDab-Cit-Cys-Dab-Thr-Tyr] (HELM PEPTIDE1{V.[Hyp].I.[Dab].Y.[Pen].N.R.[Dab].T.[NCC[C@@H](N[*:1])C(=O)[*:2]].[Cit].C.[Dab].T.Y}$PEPTIDE1,PEPTIDE1,6:R3-13:R3$$$V2.0)",0.125 µg/mL,0.125 µg/mL,0.25 µg/mL,<1%
